According to the NIST ThermoML archive (doi:10.1021/acs.jced.7b00106):
± gives the expanded uncertainty stated by the source.

Conditions: Hot wire method

FC(F)(F)/C=C/Cl [(E)-1-chloro-3,3,3-trifluoroprop-1-ene]
Conditions	thermal conductivity [W/m/K]
362.16 K, 19344 kPa, Liquid	0.07625 ± 0.00088
362.18 K, 23467 kPa, Liquid	0.07857 ± 0.0022
362.19 K, 8420 kPa, Liquid	0.06998 ± 0.0011
362.2 K, 3010 kPa, Liquid	0.06622 ± 0.00079
362.2 K, 8440 kPa, Liquid	0.07 ± 0.00083
362.2 K, 45249 kPa, Liquid	0.0878 ± 0.004
362.2 K, 45283 kPa, Liquid	0.08787 ± 0.0021
362.21 K, 3023 kPa, Liquid	0.06627 ± 0.00076
362.21 K, 23488 kPa, Liquid	0.07836 ± 0.0013
362.23 K, 790 kPa, Liquid	0.06431 ± 0.0035
362.23 K, 805 kPa, Liquid	0.06452 ± 0.0023
362.24 K, 5520 kPa, Liquid	0.06804 ± 0.00086
362.24 K, 5538 kPa, Liquid	0.06811 ± 0.001
362.26 K, 19400 kPa, Liquid	0.07636 ± 0.00085
362.27 K, 587 kPa, Fluid (supercritical or subcritical phases)	0.01619 ± 0.002
362.3 K, 11679 kPa, Liquid	0.07201 ± 0.00085
362.3 K, 11690 kPa, Liquid	0.07201 ± 0.00091
362.31 K, 39856 kPa, Liquid	0.08563 ± 0.0017
362.31 K, 39891 kPa, Liquid	0.08561 ± 0.0014
362.32 K, 26374 kPa, Liquid	0.07971 ± 0.0011
362.32 K, 26405 kPa, Liquid	0.07971 ± 0.0011
362.37 K, 484 kPa, Fluid (supercritical or subcritical phases)	0.0162 ± 0.0018
362.41 K, 33911 kPa, Liquid	0.0832 ± 0.0013
362.42 K, 8419 kPa, Liquid	0.06999 ± 0.0017
362.42 K, 33938 kPa, Liquid	0.08309 ± 0.001
362.44 K, 8433 kPa, Liquid	0.06997 ± 0.0017
362.46 K, 3010 kPa, Liquid	0.0662 ± 0.0012
362.47 K, 3011 kPa, Liquid	0.0662 ± 0.0012
362.47 K, 15419 kPa, Liquid	0.0741 ± 0.00083
362.47 K, 23460 kPa, Liquid	0.07827 ± 0.0058
362.48 K, 5516 kPa, Liquid	0.06801 ± 0.0016
362.48 K, 15443 kPa, Liquid	0.07414 ± 0.001
362.48 K, 23476 kPa, Liquid	0.07831 ± 0.004
362.48 K, 45268 kPa, Liquid	0.08777 ± 0.0021
362.48 K, 45271 kPa, Liquid	0.08777 ± 0.0021
362.49 K, 790 kPa, Liquid	0.06443 ± 0.0012
362.49 K, 5526 kPa, Liquid	0.06804 ± 0.0011
362.5 K, 790 kPa, Liquid	0.06446 ± 0.0013
362.51 K, 370 kPa, Fluid (supercritical or subcritical phases)	0.01626 ± 0.0014
362.54 K, 11661 kPa, Liquid	0.0719 ± 0.0019
362.55 K, 11680 kPa, Liquid	0.07196 ± 0.0015
362.57 K, 39863 kPa, Liquid	0.08553 ± 0.0019
362.58 K, 39864 kPa, Liquid	0.08552 ± 0.0019
362.6 K, 26399 kPa, Liquid	0.07968 ± 0.0016
362.6 K, 26401 kPa, Liquid	0.07967 ± 0.0016
362.61 K, 19433 kPa, Liquid	0.07636 ± 0.0012
362.65 K, 15399 kPa, Liquid	0.07408 ± 0.001
362.66 K, 587 kPa, Fluid (supercritical or subcritical phases)	0.0163 ± 0.0022
362.66 K, 15425 kPa, Liquid	0.07408 ± 0.00098
362.67 K, 8422 kPa, Liquid	0.06992 ± 0.0013
362.68 K, 8413 kPa, Liquid	0.06988 ± 0.0018
362.69 K, 33907 kPa, Liquid	0.08302 ± 0.0059
362.69 K, 33929 kPa, Liquid	0.08306 ± 0.0032
362.7 K, 19433 kPa, Liquid	0.07633 ± 0.0015
362.74 K, 5502 kPa, Liquid	0.06792 ± 0.0012
362.75 K, 3008 kPa, Liquid	0.06615 ± 0.00098
362.75 K, 3026 kPa, Liquid	0.06618 ± 0.00099
362.75 K, 5530 kPa, Liquid	0.06798 ± 0.00077
362.75 K, 23458 kPa, Liquid	0.07811 ± 0.0018
362.75 K, 23492 kPa, Liquid	0.07827 ± 0.002
362.75 K, 45227 kPa, Liquid	0.08785 ± 0.0013
362.76 K, 484 kPa, Fluid (supercritical or subcritical phases)	0.01624 ± 0.0016
362.76 K, 45255 kPa, Liquid	0.08771 ± 0.0017
362.77 K, 783 kPa, Liquid	0.06438 ± 0.0012
362.77 K, 802 kPa, Liquid	0.06442 ± 0.00097
362.8 K, 11664 kPa, Liquid	0.07188 ± 0.0012
362.81 K, 11670 kPa, Liquid	0.07191 ± 0.00093
362.83 K, 15386 kPa, Liquid	0.07403 ± 0.0011
362.86 K, 39872 kPa, Liquid	0.08551 ± 0.00099
362.87 K, 15400 kPa, Liquid	0.07403 ± 0.0015
362.87 K, 39835 kPa, Liquid	0.08548 ± 0.0013
362.89 K, 367 kPa, Fluid (supercritical or subcritical phases)	0.01631 ± 0.00069
362.89 K, 26375 kPa, Liquid	0.07958 ± 0.0024
